Experimental data published in paper PMC12372228 (Journal of the American Chemical Society, 2025).

Legend:
[1] = tested on: HT-29 colon cancer cells; experiment: In vitro cytotoxicity, HT-29 colon cancer cells; format: cell-based; conditions: Homo sapiens, HT-29, 72 h
[2] = tested on: HCT-116 colon cancer cells; experiment: In vitro cytotoxicity, HCT-116 colon cancer cells; conditions: Homo sapiens, HCT-116, 72 h
[3] = tested on: HT-29 tumors; experiment: Antitumor efficacy in nude mice bearing HT-29 tumors; format: in vivo; conditions: 66.7 mg/kg i.v. on days 1, 5, 9
[4] = tested on: healthy mice; conditions: dose used is near the reported MTD; cited from earlier work
[5] = tested on: HCT-116 tumors; experiment: Antitumor efficacy in nude mice bearing HCT-116 tumors; format: in vivo; conditions: 66.7 mg/kg i.v. on days 1, 5, 9; n = 5

Q: Which IC50 [1] does the source give for `CC[C@@]1(O)C(=O)OCc2c1cc1n(c2=O)Cc2cc3ccccc3nc2-1` [CPT, camptothecin] here?
A: Its IC50 is 64 nM.

Q: And the IC50 [2]?
A: The IC50 was 40 nM.

Q: What does the source list for `CCc1c2c(nc3ccc(OC(=O)N4CCC(N5CCCCC5)CC4)cc13)-c1cc3c(c(=O)n1C2)COC(=O)[C@]3(O)CC` [irinotecan]?
A: median survival ([3]; n = 5 (TT 1 study)): 33 days; median survival ([3]; n = 7 (TT 7E study)): 41 days; reported maximum tolerated dose (MTD) [4]: ~66.7 mg/kg; median survival [5]: 23 days
